Laboratory results published in ChEMBL document CHEMBL3885881, “DrugMatrix”.

Species: Rattus norvegicus
Assay: DrugMatrix - Regimen: Daily Repeat
Assay type: toxicity, organism-based, Sprague-Dawley
Parameters: regimen Daily Repeat, gender Male, age 6-8 weeks
Settings: in vivo, po, route oral GAVAGE, vehicle .5 % CMC; for ABSOLUTE BASOPHIL / ABSOLUTE EOSINOPHIL / ABSOLUTE LYMPHOCYTE / ABSOLUTE MONOCYTE / ABSOLUTE SEGMENTED NEUTROPHIL / BASOPHIL / EOSINOPHIL / ERYTHROCYTE COUNT / HEMATOCRIT / HEMOGLOBIN / LEUKOCYTE COUNT / LYMPHOCYTE / MEAN CORPUSCULAR HEMOGLOBIN / MEAN CORPUSCULAR HEMOGLOBIN CONCENTRATION / MEAN CORPUSCULAR VOLUME / MONOCYTE / NEUTROPHIL / NUCLEATED RED BLOOD CELLS / PLATELET COUNT: tissue Blood; for ALANINE AMINOTRANSFERASE / ALBUMIN / ALKALINE PHOSPHATASE / ASPARTATE AMINOTRANSFERASE / BLOOD UREA NITROGEN / CARBON DIOXIDE / CHLORIDE / CHOLESTEROL / CREATINE PHOSPHOKINASE / CREATININE / GLUCOSE / LACTATE DEHYDROGENASE / LIPASE / PHOSPHORUS / POTASSIUM / SODIUM / TOTAL BILIRUBIN / TOTAL PROTEIN / URIC ACID: tissue Plasma
[1] = 200 mg/kg, 72 h, dose level Low, time 3 day
[2] = 200 mg/kg, 120 h, dose level Low, time 5 day
[3] = 1000 mg/kg, 72 h, dose level High, time 3 day
[4] = 1000 mg/kg, 120 h, dose level High, time 5 day

c1ccc(Nc2ccc(Nc3ccccc3)cc2)cc1
ABSOLUTE BASOPHIL [1]: 0 CELLS/uL | ABSOLUTE EOSINOPHIL [1]: 237 CELLS/uL | ABSOLUTE LYMPHOCYTE [1]: 13213.33 CELLS/uL | ABSOLUTE MONOCYTE [1]: 291.33 CELLS/uL | ABSOLUTE SEGMENTED NEUTROPHIL [1]: 1225 CELLS/uL | BASOPHIL [1]: 0% | EOSINOPHIL [1]: 1.67% | ERYTHROCYTE COUNT [1]: 5.4 x10E6/uL | HEMATOCRIT [1]: 33.57% | HEMOGLOBIN [1]: 12.87 G/DL | LEUKOCYTE COUNT [1]: 14.97 x10E3/uL | LYMPHOCYTE [1]: 88% | MEAN CORPUSCULAR HEMOGLOBIN [1]: 23.83 pg | MEAN CORPUSCULAR HEMOGLOBIN CONCENTRATION [1]: 38.33 G/DL | MEAN CORPUSCULAR VOLUME [1]: 62.2 fL | MONOCYTE [1]: 2% | NEUTROPHIL [1]: 8.33% | NUCLEATED RED BLOOD CELLS [1]: 0 /100WBC | PLATELET COUNT [1]: 1471 x10E3/uL | ALANINE AMINOTRANSFERASE [1]: 46.67 u/L | ALBUMIN [1]: 4.2 G/DL | ALKALINE PHOSPHATASE [1]: 353.67 u/L | ASPARTATE AMINOTRANSFERASE [1]: 106.33 u/L | BLOOD UREA NITROGEN [1]: 15 mg/dL | CARBON DIOXIDE [1]: 22 mmol/L | CHLORIDE [1]: 105.33 MEQ/L | CHOLESTEROL [1]: 67 mg/dL | CREATINE PHOSPHOKINASE [1]: 1002.33 u/L | CREATININE [1]: 0.23 mg/dL | GLUCOSE [1]: 178.33 mg/dL | LACTATE DEHYDROGENASE [1]: 537.67 u/L | LIPASE [1]: 9.33 u/L | PHOSPHORUS [1]: 12.7 mg/dL | POTASSIUM [1]: 6.26 MEQ/L | SODIUM [1]: 143.9 MEQ/L | TOTAL BILIRUBIN [1]: 0.23 mg/dL | TOTAL PROTEIN [1]: 5.57 G/DL | URIC ACID [1]: 1.87 mg/dL | ABSOLUTE BASOPHIL [2]: 0 CELLS/uL | ABSOLUTE EOSINOPHIL [2]: 45 CELLS/uL | ABSOLUTE LYMPHOCYTE [2]: 13082 CELLS/uL | ABSOLUTE MONOCYTE [2]: 237 CELLS/uL | ABSOLUTE SEGMENTED NEUTROPHIL [2]: 736 CELLS/uL | BASOPHIL [2]: 0% | EOSINOPHIL [2]: 0.33% | ERYTHROCYTE COUNT [2]: 5.63 x10E6/uL | HEMATOCRIT [2]: 36.07% | HEMOGLOBIN [2]: 13.67 G/DL | LEUKOCYTE COUNT [2]: 14.1 x10E3/uL | LYMPHOCYTE [2]: 92.67% | MEAN CORPUSCULAR HEMOGLOBIN [2]: 24.23 pg | MEAN CORPUSCULAR HEMOGLOBIN CONCENTRATION [2]: 37.93 G/DL | MEAN CORPUSCULAR VOLUME [2]: 63.97 fL | MONOCYTE [2]: 1.67% | NEUTROPHIL [2]: 5.33% | NUCLEATED RED BLOOD CELLS [2]: 0.33 /100WBC | PLATELET COUNT [2]: 1272.33 x10E3/uL | ALANINE AMINOTRANSFERASE [2]: 46 u/L | ALBUMIN [2]: 4.23 G/DL | ALKALINE PHOSPHATASE [2]: 349 u/L | ASPARTATE AMINOTRANSFERASE [2]: 77.67 u/L | BLOOD UREA NITROGEN [2]: 17 mg/dL | CARBON DIOXIDE [2]: 28 mmol/L | CHLORIDE [2]: 105.67 MEQ/L | CHOLESTEROL [2]: 70.67 mg/dL | CREATINE PHOSPHOKINASE [2]: 230.33 u/L | CREATININE [2]: 0.24 mg/dL | GLUCOSE [2]: 178 mg/dL | LACTATE DEHYDROGENASE [2]: 121.33 u/L | LIPASE [2]: 8.67 u/L | PHOSPHORUS [2]: 12.4 mg/dL | POTASSIUM [2]: 6.76 MEQ/L | SODIUM [2]: 148.13 MEQ/L | TOTAL BILIRUBIN [2]: 0.23 mg/dL | TOTAL PROTEIN [2]: 5.83 G/DL | URIC ACID [2]: 2 mg/dL | ABSOLUTE BASOPHIL [3]: 0 CELLS/uL | ABSOLUTE EOSINOPHIL [3]: 52.33 CELLS/uL | ABSOLUTE LYMPHOCYTE [3]: 13944 CELLS/uL | ABSOLUTE MONOCYTE [3]: 300.33 CELLS/uL | ABSOLUTE SEGMENTED NEUTROPHIL [3]: 1236.67 CELLS/uL | BASOPHIL [3]: 0% | EOSINOPHIL [3]: 0.33% | ERYTHROCYTE COUNT [3]: 5.47 x10E6/uL | HEMATOCRIT [3]: 34.97% | HEMOGLOBIN [3]: 13.1 G/DL | LEUKOCYTE COUNT [3]: 15.53 x10E3/uL | LYMPHOCYTE [3]: 89.67% | MEAN CORPUSCULAR HEMOGLOBIN [3]: 23.97 pg | MEAN CORPUSCULAR HEMOGLOBIN CONCENTRATION [3]: 37.47 G/DL | MEAN CORPUSCULAR VOLUME [3]: 63.93 fL | MONOCYTE [3]: 2% | NEUTROPHIL [3]: 8% | NUCLEATED RED BLOOD CELLS [3]: 0 /100WBC | PLATELET COUNT [3]: 1345 x10E3/uL | ALANINE AMINOTRANSFERASE [3]: 40 u/L | ALBUMIN [3]: 4.3 G/DL | ALKALINE PHOSPHATASE [3]: 405.33 u/L | ASPARTATE AMINOTRANSFERASE [3]: 83 u/L | BLOOD UREA NITROGEN [3]: 18.33 mg/dL | CARBON DIOXIDE [3]: 26.33 mmol/L | CHLORIDE [3]: 102.33 MEQ/L | CHOLESTEROL [3]: 78.33 mg/dL | CREATINE PHOSPHOKINASE [3]: 324.33 u/L | CREATININE [3]: 0.21 mg/dL | GLUCOSE [3]: 155.67 mg/dL | LACTATE DEHYDROGENASE [3]: 398 u/L | LIPASE [3]: 8.67 u/L | PHOSPHORUS [3]: 12.6 mg/dL | POTASSIUM [3]: 7.38 MEQ/L | SODIUM [3]: 144.77 MEQ/L | TOTAL BILIRUBIN [3]: 0.33 mg/dL | TOTAL PROTEIN [3]: 5.8 G/DL | URIC ACID [3]: 1.47 mg/dL | ABSOLUTE BASOPHIL [4]: 0 CELLS/uL | ABSOLUTE EOSINOPHIL [4]: 50 CELLS/uL | ABSOLUTE LYMPHOCYTE [4]: 13072 CELLS/uL | ABSOLUTE MONOCYTE [4]: 337.33 CELLS/uL | ABSOLUTE SEGMENTED NEUTROPHIL [4]: 907.33 CELLS/uL | BASOPHIL [4]: 0% | EOSINOPHIL [4]: 0.33% | ERYTHROCYTE COUNT [4]: 5.47 x10E6/uL | HEMATOCRIT [4]: 35.47% | HEMOGLOBIN [4]: 13.47 G/DL | LEUKOCYTE COUNT [4]: 14.37 x10E3/uL | LYMPHOCYTE [4]: 91% | MEAN CORPUSCULAR HEMOGLOBIN [4]: 24.77 pg | MEAN CORPUSCULAR HEMOGLOBIN CONCENTRATION [4]: 37.97 G/DL | MEAN CORPUSCULAR VOLUME [4]: 65.07 fL | MONOCYTE [4]: 2.33% | NEUTROPHIL [4]: 6.33% | NUCLEATED RED BLOOD CELLS [4]: 0 /100WBC | PLATELET COUNT [4]: 1396.67 x10E3/uL | ALANINE AMINOTRANSFERASE [4]: 42.33 u/L | ALBUMIN [4]: 4.23 G/DL | ALKALINE PHOSPHATASE [4]: 316.67 u/L | ASPARTATE AMINOTRANSFERASE [4]: 67 u/L | BLOOD UREA NITROGEN [4]: 16.33 mg/dL | CARBON DIOXIDE [4]: 29 mmol/L | CHLORIDE [4]: 105.67 MEQ/L | CHOLESTEROL [4]: 69.33 mg/dL | CREATINE PHOSPHOKINASE [4]: 202.33 u/L | CREATININE [4]: 0.25 mg/dL | GLUCOSE [4]: 159 mg/dL | LACTATE DEHYDROGENASE [4]: 84.33 u/L | LIPASE [4]: 9 u/L | PHOSPHORUS [4]: 12.27 mg/dL | POTASSIUM [4]: 6.19 MEQ/L | SODIUM [4]: 146.97 MEQ/L | TOTAL BILIRUBIN [4]: 0.33 mg/dL | TOTAL PROTEIN [4]: 5.83 G/DL | URIC ACID [4]: 1.73 mg/dL
